Reference: patent US20220128542A1, “TREATMENT EFFICIENCY EVALUATION” (TX MEDIC AB, priority 2019, published 2022)

Tested on: brain of rats subjected to severe traumatic brain injury (sTBI)
Assay: Ingenuity pathway analysis of differentially regulated genes after sTBI (canonical pathways, diseases and molecular functions; Example 4)
Design: species or system rat
Conditions: 2 days after TBI
Description: Pathway analysis of the differentially regulated genes was carried out using the Ingenuity pathway analysis package. The analysis was performed with special reference to pathways and molecular processes and diseases associated with neurodegenerative disease, including dementia, Alzheimer's disease, ALS, TBI and stroke, and with scarring and fibrosis, including glaucoma and normal pressure hydrocephalus (NPH) after subarachnoid haemorrhage.

[1] = TBI + 1 mg/kg LMW-DS relative to control

sodium salt of dextran sulfate [LMW-DS]
Abdominal cancer (disease/function), z score (TBI + 1 mg/kg LMW-DS): −1.538
Abdominal carcinoma (disease/function), z score (TBI + 1 mg/kg LMW-DS): −1.715
Abdominal neoplasm (disease/function), z score (TBI + 1 mg/kg LMW-DS): −0.154
Activation of blood cells (disease/function), z score (TBI + 1 mg/kg LMW-DS): 0.086
Activation of cells (disease/function), z score (TBI + 1 mg/kg LMW-DS): 0.836
Activation of leukocytes (disease/function), z score (TBI + 1 mg/kg LMW-DS): 0.086
Activation of lymphocytes (disease/function), z score (TBI + 1 mg/kg LMW-DS): −1.158
Adhesion of tumor cell lines (disease/function), z score (TBI + 1 mg/kg LMW-DS): 2.074
Apoptosis (disease/function), z score (TBI + 1 mg/kg LMW-DS): −0.337
Apoptosis of muscle cells (disease/function), z score (TBI + 1 mg/kg LMW-DS): 0.041
Behavior (disease/function), z score (TBI + 1 mg/kg LMW-DS): 1.334
Binding of tumor cell lines (disease/function), z score (TBI + 1 mg/kg LMW-DS): 2.397
Carcinoma (disease/function), z score (TBI + 1 mg/kg LMW-DS): −0.127
Cell death (disease/function), z score (TBI + 1 mg/kg LMW-DS): −0.793
Cell death of blood cells (disease/function), z score (TBI + 1 mg/kg LMW-DS): 1.082
Cell death of immune cells (disease/function), z score (TBI + 1 mg/kg LMW-DS): 1.001
Cell movement (disease/function), z score (TBI + 1 mg/kg LMW-DS): 1.948
Cell movement of muscle cells (disease/function), z score (TBI + 1 mg/kg LMW-DS): −0.26
Cell movement of vascular smooth muscle cells (disease/function), z score (TBI + 1 mg/kg LMW-DS): −0.588
Cell proliferation of T lymphocytes (disease/function), z score (TBI + 1 mg/kg LMW-DS): −1.097
Cellular homeostasis (disease/function), z score (TBI + 1 mg/kg LMW-DS): 0.19
Development of connective tissue cells (disease/function), z score (TBI + 1 mg/kg LMW-DS): −0.332
Differentiation of bone cells (disease/function), z score (TBI + 1 mg/kg LMW-DS): −0.341
Differentiation of connective tissue cells (disease/function), z score (TBI + 1 mg/kg LMW-DS): 0.73
Differentiation of hematopoietic progenitor cells (disease/function), z score (TBI + 1 mg/kg LMW-DS): 0.487
Differentiation of osteoclasts (disease/function), z score (TBI + 1 mg/kg LMW-DS): −0.223
Digestive organ tumor (disease/function), z score (TBI + 1 mg/kg LMW-DS): −0.604
Experimentally-induced arthritis (disease/function), z score (TBI + 1 mg/kg LMW-DS): −0.816
Extracranial solid tumor (disease/function), z score (TBI + 1 mg/kg LMW-DS): 0.056
Genital tumor (disease/function), z score (TBI + 1 mg/kg LMW-DS): 0.13
IL-1 Signaling canonical pathway, effect (TBI + 1 mg/kg LMW-DS): Inhibited
Incidence of tumor (disease/function), z score (TBI + 1 mg/kg LMW-DS): −1.131
Inflammation of absolute anatomical region (disease/function), z score (TBI + 1 mg/kg LMW-DS): −1.359
Inflammation of body cavity (disease/function), z score (TBI + 1 mg/kg LMW-DS): −1.757
Inflammation of joint (disease/function), z score (TBI + 1 mg/kg LMW-DS): −0.053
Inflammation of organ (disease/function), z score (TBI + 1 mg/kg LMW-DS): −1.295
Inflammatory response (disease/function), z score (TBI + 1 mg/kg LMW-DS): 1.159
Interaction of mononuclear leukocytes (disease/function), z score (TBI + 1 mg/kg LMW-DS): 1.626
Leukocyte migration (disease/function), z score (TBI + 1 mg/kg LMW-DS): 1.296
Leukopoiesis (disease/function), z score (TBI + 1 mg/kg LMW-DS): 1.185
Lymphopoiesis (disease/function), z score (TBI + 1 mg/kg LMW-DS): 0.583
Malignant solid tumor (disease/function), z score (TBI + 1 mg/kg LMW-DS): −0.562
Migration of cells (disease/function), z score (TBI + 1 mg/kg LMW-DS): 2.093
Necrosis (disease/function), z score (TBI + 1 mg/kg LMW-DS): −0.361
Non-hematologic malignant neoplasm (disease/function), z score (TBI + 1 mg/kg LMW-DS): −0.243
Osteoarthritis Pathway canonical pathway, effect (TBI + 1 mg/kg LMW-DS): Inhibited
Pelvic tumor (disease/function), z score (TBI + 1 mg/kg LMW-DS): −0.651
Proliferation of blood cells (disease/function), z score (TBI + 1 mg/kg LMW-DS): −1.083
Proliferation of lymphatic system cells (disease/function), z score (TBI + 1 mg/kg LMW-DS): −1.112
Proliferation of lymphocytes (disease/function), z score (TBI + 1 mg/kg LMW-DS): −0.852
Quantity of blood cells (disease/function), z score (TBI + 1 mg/kg LMW-DS): −1.479
Quantity of bone (disease/function), z score (TBI + 1 mg/kg LMW-DS): −1.985
Quantity of cells (disease/function), z score (TBI + 1 mg/kg LMW-DS): −0.765
Quantity of connective tissue cells (disease/function), z score (TBI + 1 mg/kg LMW-DS): 0.637
Quantity of leukocytes (disease/function), z score (TBI + 1 mg/kg LMW-DS): −1.163
Quantity of lymphatic system cells (disease/function), z score (TBI + 1 mg/kg LMW-DS): −0.701
Quantity of phagocytes (disease/function), z score (TBI + 1 mg/kg LMW-DS): −2.061
Rheumatic Disease (disease/function), z score (TBI + 1 mg/kg LMW-DS): −0.053
Role of NFAT in Regulation of the Immune Response canonical pathway, effect (TBI + 1 mg/kg LMW-DS): Activated
Solid tumor (disease/function), z score (TBI + 1 mg/kg LMW-DS): −0.186
Survival of organism (disease/function), z score (TBI + 1 mg/kg LMW-DS): −0.095
Synthesis of hormone (disease/function), z score (TBI + 1 mg/kg LMW-DS): 0.977
Thrombus (disease/function), z score (TBI + 1 mg/kg LMW-DS): 1
Transcription of RNA (disease/function), z score (TBI + 1 mg/kg LMW-DS): 1.519
Transport of molecule (disease/function), z score (TBI + 1 mg/kg LMW-DS): 2.421
IL-1 Signaling canonical pathway, z score [1]: −1
Osteoarthritis Pathway canonical pathway, z score [1]: −1.342
Role of NFAT in Regulation of the Immune Response canonical pathway, z score [1]: 0.378
Abdominal cancer (disease/function), z score (TBI + 5 mg/kg LMW-DS): −2.553
Abdominal carcinoma (disease/function), z score (TBI + 5 mg/kg LMW-DS): −2.631
Abdominal neoplasm (disease/function), z score (TBI + 5 mg/kg LMW-DS): −0.927
Adrenomedullin Signaling pathway canonical pathway, effect (TBI + 5 mg/kg LMW-DS): Inhibited
